Measurements as given in US20100216777A1, “AMINOPYRAZINE ANALOGS FOR TREATING GLAUCOMA AND OTHER RHO KINASE-MEDIATED DISEASES AND CONDITIONS” (ALCON, INC., priority 2004, published 2010).
Counter-ions that a name gives are not always drawn.

target: T1, Human Recombinant ROCK-II Enzyme (ROKα/ROCK-II, aa 11-552) (Homo sapiens, UniProt O75116); experiment: ROCK-II inhibition, fluorescence polarization assay (IMAP ROCK II kit); type: biochemical; conditions: substrate 200 nM, ATP 10 μM, 60 min at 23° C., read-out: Enzyme Inhibition Constants (IC50) against Human Recombinant ROCK-II Enzyme
T1 construct: (ROKα/ROCK-II, (aa 11-552), human active); purchased Upstate Biotechnology Co., Lake Placid, N.Y. 14-451
Method: The ability of certain compounds of Formula (I) to inhibit rho kinase was evaluated by means of in vitro assays. Human recombinant Rho kinase (ROKα/ROCK-II, (aa 11-552), human active, catalog #14-451, Upstate Biotechnology Co., Lake Placid, N.Y.), MgCl2/ATP cocktail, and enzyme substrate (Upstate) are used.
The fluorescence polarization assays are performed using a Biomek 2000 Robotic Workstation (Beckman Instruments, Palo Alto, Calif.) in a 96-well plate format. The assays are performed utilizing the IMAP ROCK II kit (Molecular Devices, Sunnyvale, Calif.) as follows. Substrate and ATP concentrations used are 200 nM and 10 μM, respectively, while the enzyme concentration is 3.96×10^−3 units per well. The substrate, enzyme, and ATP dilutions are made with the reaction buffer provided by the vendor. Test compounds are diluted in 10:10 DMSO-ethanol (vol/vol). For the actual assays, the various components are added into black, clear bottom, 96-well plates (Costar, Corning, N.Y.) in a final volume of 20 μl per well. After the enzyme reaction (60 min at 23° C.), 60 μl of the binding solution (IMAP kit, provided by vendor) is added per well and incubated for an additional 30 minutes in the dark at 23° C. Fluorescence polarization of the reaction mixtures is then measured on the Analyst™ HT instrument (Molecular Devices, Sunnyvale, Calif.).
The data generated are then analyzed using a non-linear, iterative, sigmoidal-fit computer program purchased from IDBS (Emeryville, Calif.) and as previously described (Sharif et al., J. Pharmacol. Exp. Ther. 286:1094-1102, 1998; Sharif et al., J. Pharmacol. Expt. Ther. 293:321-328, 2000; Sharif et al., J. Ocular Pharmacol. Ther. 18:141-162, 2002a; Sharif et al., J. Pharmac. Pharmacol. 54:539-547, 2002b) to generate the inhibition constants for the test compounds.

T1 sequence (O75116 11-552): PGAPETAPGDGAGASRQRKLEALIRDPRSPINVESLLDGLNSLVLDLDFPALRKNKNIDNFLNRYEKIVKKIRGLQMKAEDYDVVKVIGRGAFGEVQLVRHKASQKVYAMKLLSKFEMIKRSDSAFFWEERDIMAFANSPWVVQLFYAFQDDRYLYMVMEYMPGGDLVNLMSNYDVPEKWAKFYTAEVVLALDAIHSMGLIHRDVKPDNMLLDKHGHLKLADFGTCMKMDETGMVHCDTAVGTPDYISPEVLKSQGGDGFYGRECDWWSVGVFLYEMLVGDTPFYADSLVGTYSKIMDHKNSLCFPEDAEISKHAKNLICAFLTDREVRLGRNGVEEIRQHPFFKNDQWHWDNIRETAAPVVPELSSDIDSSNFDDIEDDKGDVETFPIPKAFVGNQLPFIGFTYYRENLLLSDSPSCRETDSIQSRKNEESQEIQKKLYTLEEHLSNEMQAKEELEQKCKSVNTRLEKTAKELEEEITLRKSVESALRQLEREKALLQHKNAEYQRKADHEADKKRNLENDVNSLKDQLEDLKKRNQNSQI

How did the IC50 turn out when Cc1n[nH]c2ccc(-c3cnc(N4CCCC4)c(N4CCCNCC4)n3)cc12 [Example 43, 5-(6-(1,4-Diazepan-1-yl)-5-(pyrrolidin-1-yl)pyrazin-2-yl)-3-methyl-1H-indazole hydrochloride] was run?
Its IC50 is 0.11 nM.

For OCCN1CCN(c2nc(-c3ccncc3)cnc2N2CCCC2)CC1 [Example 44], which IC50 is on record?
Its IC50 is 0.078 nM.

c1cc(-c2cnc(N3CCCC3)c(NC3CCCNC3)n2)ccn1 (stereo not shown) [Example 45, N-(Piperidin-3-yl)-6-(pyridin-4-yl)-3-(pyrrolidin-1-yl)pyrazin-2-amine dihydrochloride] was tested. Which IC50 did it give?
Its IC50 is 0.25 nM.

Which IC50 does the source give for c1cc(-c2cnc(N3CCCC3)c(OC3CCNCC3)n2)ccn1 [Example 46, 3-(Piperidin-4-yloxy)-5-(pyridin-4-yl)-2-(pyrrolidin-1-yl)pyrazine] here?
The IC50 was 0.084 nM.

c1cc(-c2cnc(N3CCCC3)c(OC3CCNCC3)n2)c2cc[nH]c2n1 [Example 47, 4-(6-(Piperidin-4-yloxy)-5-(pyrrolidin-1-yl)pyrazin-2-yl)-1H-pyrrolo[2,3-b]pyridine] was tested. Which IC50 did it give?
The IC50 was 0.054 nM.

For CN1CCCN(c2nc(-c3ccncc3)cnc2N2CCCCC2)CC1 [Example 48, 1-Methyl-4-(3-(piperidin-1-yl)-6-(pyridin-4-yl)pyrazin-2-yl)-1,4-diazepane hydrochloride], which IC50 is on record?
Its IC50 is 0.56 nM.

c1cc(-c2cnc(N3CCCCC3)c(NC3CCCNC3)n2)ccn1 (stereo not shown) [Example 49, 3-(Piperidin-1-yl)-N-(piperidin-3-yl)-6-(pyridin-4-yl)pyrazin-2-amine] was tested. Which IC50 did it give?
The IC50 was 0.3 nM.

With CN1CCCN(c2nc(-c3ccncc3)cnc2N2CCCCCC2)CC1 [Example 50, 1-(3-(Azepan-1-yl)-6-(pyridin-4-yl)pyrazin-2-yl)-4-methyl-1,4-diazepane hydrochloride] as the compound, how does the IC50 read?
Its IC50 is 0.02 nM.

c1cc(-c2cnc(N3CCCCCC3)c(NC3CCCNC3)n2)ccn1 (stereo not shown) [Example 51, 3-(Azepan-1-yl)-N-(piperidin-3-yl)-6-(pyridin-4-yl)pyrazin-2-amine dihydrochloride] was tested. Which IC50 did it give?
The IC50 was 0.19 nM.

CN1CCCN(c2nc(-c3ccncc3)cnc2N2CCOCC2)CC1 [Example 52, 4-(3-(4-Methyl-1,4-diazepan-1-yl)-5-(pyridin-4-yl)pyrazin-2-yl)morpholine trihydrochloride] was tested. Which IC50 did it give?
Its IC50 is 6.3 nM.
